Measurements published in patent publication US5459049A, “Motilin-like polypeptide and use thereof” (priority 1989, dated 1995).

Molecular target: upper small intestine of rabbit (Oryctolagus cuniculus, UniProt G1T803)
Conditions: from ED50, contraction activity of native motilin taken as 100%
Protocol: An intestinal contraction activity was measured by Magnus method using upper small intestine of rabbit ["J. Pharm. Pharmac.", Vol. 28, pages 650-651 (1976)], on each motilin-like polypeptides (Example 1, wherein R1 is Hse, Asp-Gly-Ile-Phe-Hse, or Arg-Ile-Phe-Hse) according to the invention, as test samples and a conventional pure [Leu^13 ]-motilin, as control sample. The activities of the test samples and control sample were compared, under assumption of that an contraction activity caused by 10^-6 M acetylcholine is 100%.

Sequence of upper small intestine of rabbit (G1T803 1-400): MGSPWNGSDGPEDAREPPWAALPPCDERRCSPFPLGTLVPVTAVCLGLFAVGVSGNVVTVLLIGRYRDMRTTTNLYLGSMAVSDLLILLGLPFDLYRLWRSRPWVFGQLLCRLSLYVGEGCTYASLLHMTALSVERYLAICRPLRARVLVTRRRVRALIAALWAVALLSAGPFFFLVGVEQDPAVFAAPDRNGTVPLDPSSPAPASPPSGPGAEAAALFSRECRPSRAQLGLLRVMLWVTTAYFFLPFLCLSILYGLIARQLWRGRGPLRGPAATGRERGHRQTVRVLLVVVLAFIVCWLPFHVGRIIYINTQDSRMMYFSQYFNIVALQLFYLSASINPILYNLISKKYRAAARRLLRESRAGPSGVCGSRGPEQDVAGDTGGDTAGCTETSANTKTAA

CC[C@H](C)[C@H](NC(=O)[C@@H]1CCCN1C(=O)[C@@H](NC(=O)[C@@H](N)Cc1ccccc1)C(C)C)C(=O)N[C@@H](Cc1ccccc1)C(=O)N[C@H](C(=O)N[C@@H](Cc1ccc(O)cc1)C(=O)NCC(=O)N[C@@H](CCC(=O)O)C(=O)N[C@@H](CC(C)C)C(=O)N[C@@H](CCC(N)=O)C(=O)N[C@@H](CCCNC(=N)N)C(=O)N[C@@H](CCSC)C(=O)N[C@@H](CCC(N)=O)C(=O)N[C@@H](CCC(=O)O)C(=O)N[C@@H](CCCCN)C(=O)N[C@@H](CCC(=O)O)C(=O)N[C@@H](CCCNC(=N)N)C(=O)N[C@@H](CC(N)=O)C(=O)N[C@@H](CCCCN)C(=O)NCC(=O)N[C@@H](CCC(N)=O)C(=O)O)[C@@H](C)O [native motilin]
Activity in vitro (%): 100%
